Results on 20 molecules are retold here after patent US20190322676A1, “CERAMIDE GALACTOSYLTRANSFERASE INHIBITORS FOR THE TREATMENT OF DISEASE” (BioMarin Pharmaceutical Inc., priority 2016, published 2019).

The IC50 is the point on the concentration scale where inhibition reaches its midpoint. A lower IC50 goes with greater potency.

The target of this assay is T1, human CGT (ceramide galactosyltransferase), CHO/CGT lysate (Homo sapiens, UniProt Q16880).
T1 construct: Full-length human CGT cDNA was cloned into the BamH1/Xho1 site of pcDNA3.1 (+); expressed in transfected cells; host or cells: Chinese hamster ovary (CHO) cells; lysate prepared with M-PER
T1 sequence (Q16880 21-541): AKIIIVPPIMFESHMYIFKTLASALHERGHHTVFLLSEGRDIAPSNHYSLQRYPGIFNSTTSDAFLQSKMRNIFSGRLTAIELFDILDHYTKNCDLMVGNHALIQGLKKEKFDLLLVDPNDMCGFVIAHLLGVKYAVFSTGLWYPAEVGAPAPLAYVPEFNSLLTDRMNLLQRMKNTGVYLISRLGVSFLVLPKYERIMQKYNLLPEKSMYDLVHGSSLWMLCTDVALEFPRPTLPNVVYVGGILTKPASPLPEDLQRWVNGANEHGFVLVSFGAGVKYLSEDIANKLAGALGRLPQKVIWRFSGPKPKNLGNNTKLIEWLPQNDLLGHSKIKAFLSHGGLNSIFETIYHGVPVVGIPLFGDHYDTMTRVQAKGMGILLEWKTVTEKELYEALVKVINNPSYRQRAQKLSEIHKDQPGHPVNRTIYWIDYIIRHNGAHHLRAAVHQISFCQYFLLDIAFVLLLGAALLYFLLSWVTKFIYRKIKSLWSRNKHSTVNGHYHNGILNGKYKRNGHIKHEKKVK
The assay is described as follows: CGT enzyme assay, RapidFire/MS/MS readout with 0.01% Tween added (Table 1 ranges with two asterisks **). The class given is biochemical. The conditions noted are these: CGT enzymatic assay; range with two asterisks (**): RapidFire/MS/MS method with 0.01% Tween added. The gist of the method: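 IC50s come from variable-slope dose-response fits of internal-standard-normalized C6-NBD-dihydro-galactosylceramide, measured by RapidFire/MS/MS (ESI negative). Reactions: 1 h, 37 °C, human CGT-expressing CHO lysate (4 μg), 0.001–50 μM compound, 10 μM NBD-dihydro-ceramide, 17.5 μM UDP-galactose, 0.5% DMSO, pH 7.2; 0.01% Tween 80 added for ** values.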

The structures appear in SMILES notation. Structures can show the parent of a compound that is named as a salt.

The molecule `C=C(c1ccc(C(F)(F)[C@@H](NS(=O)(=O)c2ccc3cc(OC4CCCC4)ccc3c2)C(=O)N2CCC(N)CC2)cc1)C(F)(F)F` [Compound 166-2, (S)—N-(3-(4-aminopiperidin-1-yl)-1,1-difluoro-3-oxo-1-(4-(3,3,3-trifluoroprop-1-en-2-yl)phenyl)propan-2-yl)-6-(cyclopentyloxy) naphthalene-2-sulfonamide] gave a concentration for half-maximal inhibition (IC50) of 1 to 10 µM.

With `NC1CC2CCC(C1)N2C(=O)[C@@H](NS(=O)(=O)c1cc2ccc(OC3CCCC3)cc2s1)C(F)(F)c1ccc(Br)cc1` (stereo partly drawn) [Compound 167-1, N-((2R)-3-(3-amino-8-azabicyclo[3.2.1]octan-8-yl)-1-(4-bromophenyl)-1,1-difluoro-3-oxopropan-2-yl)-6-(cyclopentyloxy)benzo[b]thiophene-2-sulfonamide trifluoroacetate], the IC50 was 1 to 10 µM. Under `NC1CC2CCC(C1)N2C(=O)[C@H](NS(=O)(=O)c1cc2ccc(OC3CCCC3)cc2s1)C(F)(F)c1ccc(Br)cc1` (some centres unmarked) [Compound 167-2, N-((2 S)-3-(3-amino-8-azabicyclo[3.2.1]octan-8-yl)-1-(4-bromophenyl)-1,1-difluoro-3-oxopropan-2-yl)-6-(cyclopentyloxy)benzo[b]thiophene-2-sulfonamide trifluoroacetate] stands 1 to 10 µM; under `NC1CCN(C(=O)[C@@H](NS(=O)(=O)c2ccc3cc(OC4CCCC4)ccc3c2)C(F)(F)c2ccc(Cl)c(OC3CC3)c2)CC1` [Compound 168-1, (R)—N-(3-(4-aminopiperidin-1-yl)-1-(4-chloro-3-cyclopropoxyphenyl)-1,1-difluoro-3-oxopropan-2-yl)-6-(cyclopentyloxy)naphthalene-2-sulfonamide trifluoroacetate], 1 to 10 µM. `NC1CCN(C(=O)[C@H](NS(=O)(=O)c2ccc3cc(OC4CCCC4)ccc3c2)C(F)(F)c2ccc(Cl)c(OC3CC3)c2)CC1` [Compound 168-2, (S)—N-(3-(4-aminopiperidin-1-yl)-1-(4-chloro-3-cyclopropoxyphenyl)-1,1-difluoro-3-oxopropan-2-yl)-6-(cyclopentyloxy) naphthalene-2-sulfonamide trifluoroacetate] showed an IC50 of 10 to 30 µM. With `CCCOc1cc(C(F)(F)[C@H](NS(=O)(=O)c2ccc3cc(OC4CCCC4)ccc3c2)C(=O)N2CCC(N)CC2)ccc1Cl` [Compound 169-1, (R)—N-(3-(4-aminopiperidin-1-yl)-1-(4-chloro-3-propoxyphenyl)-1,1-difluoro-3-oxopropan-2-yl)-6-(cyclopentyloxy)naphthalene-2-sulfonamide trifluoroacetate], the 50% inhibitory concentration (IC50) is below 1 µM. To `CCCOc1cc(C(F)(F)[C@@H](NS(=O)(=O)c2ccc3cc(OC4CCCC4)ccc3c2)C(=O)N2CCC(N)CC2)ccc1Cl` [Compound 169-2, (S)—N-(3-(4-aminopiperidin-1-yl)-1-(4-chloro-3-propoxyphenyl)-1,1-difluoro-3-oxopropan-2-yl)-6-(cyclopentyloxy) naphthalene-2-sulfonamide trifluoroacetate] belongs 1 to 10 µM; to `NC1CCN(C(=O)[C@@H](NS(=O)(=O)c2ccc3cc(OC4CCCC4)ccc3c2)C(F)(F)c2ccc(Cl)c(OC3CCCC3)c2)CC1` [Compound 170-1, (R)—N-(3-(4-aminopiperidin-1-yl)-1-(4-chloro-3-(cyclopentyloxy)phenyl)-1,1-difluoro-3-oxopropan-2-yl)-6-(cyclopentyloxy)naphthalene-2-sulfonamide trifluoroacetate], 1 to 10 µM; to `NC1CCN(C(=O)[C@H](NS(=O)(=O)c2ccc3cc(OC4CCCC4)ccc3c2)C(F)(F)c2ccc(Cl)c(OC3CCCC3)c2)CC1` [Compound 170-2, (S)—N-(3-(4-aminopiperidin-1-yl)-1-(4-chloro-3-(cyclopentyloxy)phenyl)-1,1-difluoro-3-oxopropan-2-yl)-6-(cyclopentyloxy) naphthalene-2-sulfonamide trifluoroacetate], 10 to 30 µM. In turn, `N[C@H]1CCN(C(=O)[C@@H](NS(=O)(=O)c2ccc(OCC3CCCCC3)cc2)C(F)(F)c2ccc(-c3ccc(Cl)cc3)cc2)C1` [Compound 171-1, N—((R)-3-((S)-3-aminopyrrolidin-1-yl)-1-(4′-chloro-[1,1′-biphenyl]-4-yl)-1,1-difluoro-3-oxopropan-2-yl)-4-(cyclohexylmethoxy)benzenesulfonamide trifluoroacetate] yielded a concentration for half-maximal inhibition (IC50) of 1 to 10 µM. In turn, `N[C@H]1CCN(C(=O)[C@H](NS(=O)(=O)c2ccc(OCC3CCCCC3)cc2)C(F)(F)c2ccc(-c3ccc(Cl)cc3)cc2)C1` [Compound 171-2, N—((S)-3-((S)-3-aminopyrrolidin-1-yl)-1-(4′-chloro-[1,1′-biphenyl]-4-yl)-1,1-difluoro-3-oxopropan-2-yl)-4-(cyclohexylmethoxy) benzenesulfonamide trifluoroacetate] registered a concentration for half-maximal inhibition (IC50) of 30 to 100 µM. To `CC(C)Oc1cc(C(F)(F)[C@H](NS(=O)(=O)c2ccc3cc(OC4CCCC4)ccc3c2)C(=O)N2CCC(N)CC2)ccc1Cl` [Compound 172-1, (R)—N-(3-(4-aminopiperidin-1-yl)-1-(4-chloro-3-isopropoxyphenyl)-1,1-difluoro-3-oxopropan-2-yl)-6-(cyclopentyloxy)naphthalene-2-sulfonamide trifluoroacetate] belongs 1 to 10 µM; to `CC(C)Oc1cc(C(F)(F)[C@@H](NS(=O)(=O)c2ccc3cc(OC4CCCC4)ccc3c2)C(=O)N2CCC(N)CC2)ccc1Cl` [Compound 172-2, (S)—N-(3-(4-aminopiperidin-1-yl)-1-(4-chloro-3-isopropoxyphenyl)-1,1-difluoro-3-oxopropan-2-yl)-6-(cyclopentyloxy) naphthalene-2-sulfonamide trifluoroacetate], 10 to 30 µM. In the case of `NC(=O)C1CCN(C(=O)[C@@H](NS(=O)(=O)c2ccc3cc(OC4CCCC4)ccc3c2)C(F)(F)c2ccc(-c3ccc(Cl)cc3)cc2)CC1` [Compound 173-1, (R)-1-(3-(4′-chloro-[1,1′-biphenyl]-4-yl)-2-((6-(cyclopentyloxy)naphthalene)-2-sulfonamido)-3,3-difluoropropanoyl)piperidine-4-carboxamide], the half-maximal inhibitory concentration (IC50) lay within 1 to 10 µM. As for `NC(=O)C1CCN(C(=O)[C@H](NS(=O)(=O)c2ccc3cc(OC4CCCC4)ccc3c2)C(F)(F)c2ccc(-c3ccc(Cl)cc3)cc2)CC1` [Compound 173-2, (S)-1-(3-(4′-chloro-[1,1′-biphenyl]-4-yl)-2-((6-(cyclopentyloxy)naphthalene)-2-sulfonamido)-3,3-difluoropropanoyl)piperidine-4-carboxamide], the half-inhibitory concentration (IC50) fell in the range of 30 to 100 µM. To `NC(=NO)C1CCN(C(=O)[C@@H](NS(=O)(=O)c2ccc3cc(OC4CCCC4)ccc3c2)C(F)(F)c2ccc(-c3ccc(Cl)cc3)cc2)CC1` [Compound 174-1, (R)-1-(3-(4′-chloro-[1,1′-biphenyl]-4-yl)-2-((6-(cyclopentyloxy)naphthalene)-2-sulfonamido)-3,3-difluoropropanoyl)-N′-hydroxypiperidine-4-carboximidamide] belongs 1 to 10 µM; to `NC(=NO)C1CCN(C(=O)[C@H](NS(=O)(=O)c2ccc3cc(OC4CCCC4)ccc3c2)C(F)(F)c2ccc(-c3ccc(Cl)cc3)cc2)CC1` [Compound 174-2, (S)-1-(3-(4′-chloro-[1,1′-biphenyl]-4-yl)-2-((6-(cyclopentyloxy)naphthalene)-2-sulfonamido)-3,3-difluoropropanoyl)-N′-hydroxypiperidine-4-carboximidamide], 30 to 100 µM; to `NC1CCN(C(=O)[C@@H](NC(=O)C(=O)c2cc3ccc(OC4CCCC4)cc3s2)C(F)(F)c2ccc(-c3ccc(Cl)cc3)cc2)CC1` [Compound 175-1, (R)—N-(3-(4-aminopiperidin-1-yl)-1-(4′-chloro-[1,1′-biphenyl]-4-yl)-1,1-difluoro-3-oxopropan-2-yl)-2-(6-(cyclopentyloxy)benzo[b]thiophen-2-yl)-2-oxoacetamide trifluoroacetate], 10 to 30 µM. To `NC1CCN(C(=O)[C@H](NC(=O)C(=O)c2cc3ccc(OC4CCCC4)cc3s2)C(F)(F)c2ccc(-c3ccc(Cl)cc3)cc2)CC1` [Compound 175-2, (S)—N-(3-(4-aminopiperidin-1-yl)-1-(4′-chloro-[1,1′-biphenyl]-4-yl)-1,1-difluoro-3-oxopropan-2-yl)-2-(6-(cyclopentyloxy)benzo[b]thiophen-2-yl)-2-oxoacetamide trifluoroacetate] belongs 30 to 100 µM; to `O=C([C@@H](NS(=O)(=O)c1ccc2cc(OC3CCCC3)ccc2c1)C(F)(F)c1ccc(-c2ccc(Cl)cc2)cc1)N1Cc2cn[nH]c2C1` [Compound 176-1, (R)—N-(1-(4′-chloro-[1,1′-biphenyl]-4-yl)-3-(4,6-dihydropyrrolo[3,4-c]pyrazol-5(1H)-yl)-1,1-difluoro-3-oxopropan-2-yl)-6-(cyclopentyloxy)naphthalene-2-sulfonamide], below 1 µM.
